Reference: PMC7403421, “Uncovering a possible role of reactive oxygen species in magnetogenetics” (Scientific Reports, 2020)

Molecular target: T1, TRPV1 (Rattus norvegicus, UniProt O35433)
T1 construct: rat TRPV1 with an N-terminally fused camelidae anti-GFP nanobody (αGFPnb-TRPV1), co-expressed with eGFP-tagged ferritin dimer in HEK-293T cells
Test: agonist dose response in Ca2+-dependent SEAP reporter and fluorescent calcium imaging in HEK-293T cells expressing TRPV1
Type: cell-based

T1 sequence (O35433 whole entry, the tested form may be a part): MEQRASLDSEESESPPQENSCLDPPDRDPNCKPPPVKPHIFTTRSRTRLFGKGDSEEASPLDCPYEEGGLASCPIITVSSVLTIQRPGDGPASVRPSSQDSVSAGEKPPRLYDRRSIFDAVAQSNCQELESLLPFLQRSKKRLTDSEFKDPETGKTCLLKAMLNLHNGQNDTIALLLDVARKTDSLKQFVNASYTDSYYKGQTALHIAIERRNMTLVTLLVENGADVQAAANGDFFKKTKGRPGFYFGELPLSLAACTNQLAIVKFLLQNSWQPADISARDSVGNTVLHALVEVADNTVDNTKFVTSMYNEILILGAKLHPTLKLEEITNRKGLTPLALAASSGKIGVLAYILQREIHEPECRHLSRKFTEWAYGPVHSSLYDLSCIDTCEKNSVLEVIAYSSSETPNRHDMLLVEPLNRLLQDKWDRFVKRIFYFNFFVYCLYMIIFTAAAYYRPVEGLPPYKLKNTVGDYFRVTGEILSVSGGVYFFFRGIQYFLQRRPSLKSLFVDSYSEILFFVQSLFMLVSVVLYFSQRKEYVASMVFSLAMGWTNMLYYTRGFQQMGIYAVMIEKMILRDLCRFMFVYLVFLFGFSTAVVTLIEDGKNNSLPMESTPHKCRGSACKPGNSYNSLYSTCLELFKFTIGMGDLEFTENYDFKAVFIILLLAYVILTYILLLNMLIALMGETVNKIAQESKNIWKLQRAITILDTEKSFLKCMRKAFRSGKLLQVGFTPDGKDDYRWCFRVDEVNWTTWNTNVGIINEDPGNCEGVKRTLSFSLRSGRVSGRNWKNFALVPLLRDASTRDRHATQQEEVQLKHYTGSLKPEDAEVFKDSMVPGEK

COc1cc(CNC(=O)CCCC/C=C/C(C)C)ccc1O [capsaicin]
agonist dose response in Ca2+-dependent SEAP reporter and fluorescent calcium im: Dose dependent TRPV1-mediated SEAP production was observed with respect to both capsaicin and inhibitor concentration
